Data as given in article PMC7486443, “Generation of Phenothiazine with Potent Anti-TLK1 Activity for Prostate Cancer Therapy” (iScience, 2020).

Columns and labels:
Assay in all cases: biochemical
Design in all cases: DiscoverX KINOMEscan scanMAX competition binding panel, single concentration, percent of control; remaining binding: dose or concentration left out as unconfirmed
Settings in all cases: KINOMEscan binding, percent of control; read-out: Table S4_SCANMAX REPORT - related to Fig. 1 / Percent Control
ERK3 = biological target: T1, ERK3 (Homo sapiens, UniProt Q16659)
T1 construct: gene MAPK6

MINK = biological target: T2, MINK (Homo sapiens, UniProt Q8N4C8)
T2 construct: gene MINK1

MST4 = biological target: T3, MST4 (Homo sapiens, UniProt Q9P289)
T3 construct: gene STK26

KIT(V559D) = KIT(V559D) (Homo sapiens, UniProt P10721, V559D)
[1] = biological target: T4, ABL1(M351T)-phosphorylated (Homo sapiens, UniProt P00519, M351T)
T4 construct: phosphorylated

BRSK2 = BRSK2 (Homo sapiens, UniProt Q8IWQ3)
NEK9 = NEK9 (Homo sapiens, UniProt Q8TD19)
DDR1 = DDR1 (Homo sapiens, UniProt Q08345)
MAP4K5 = MAP4K5 (Homo sapiens, UniProt Q9Y4K4)
BIKE = biological target: T5, BIKE (Homo sapiens, UniProt Q9NSY1)
T5 construct: gene BMP2K

MKK7 = biological target: T6, MKK7 (Homo sapiens, UniProt O14733)
T6 construct: gene MAP2K7

CASK = CASK (Homo sapiens, UniProt O14936)
ZAP70 = ZAP70 (Homo sapiens, UniProt P43403)
ERBB3 = ERBB3 (Homo sapiens, UniProt P21860)
PAK2 = PAK2 (Homo sapiens, UniProt Q13177)
MET(M1250T) = MET(M1250T) (Homo sapiens, UniProt P08581, M1250T)
SRPK1 = SRPK1 (Homo sapiens, UniProt Q96SB4)
MAPKAPK2 = MAPKAPK2 (Homo sapiens, UniProt P49137)

DDR1, sequence (Q08345 whole entry): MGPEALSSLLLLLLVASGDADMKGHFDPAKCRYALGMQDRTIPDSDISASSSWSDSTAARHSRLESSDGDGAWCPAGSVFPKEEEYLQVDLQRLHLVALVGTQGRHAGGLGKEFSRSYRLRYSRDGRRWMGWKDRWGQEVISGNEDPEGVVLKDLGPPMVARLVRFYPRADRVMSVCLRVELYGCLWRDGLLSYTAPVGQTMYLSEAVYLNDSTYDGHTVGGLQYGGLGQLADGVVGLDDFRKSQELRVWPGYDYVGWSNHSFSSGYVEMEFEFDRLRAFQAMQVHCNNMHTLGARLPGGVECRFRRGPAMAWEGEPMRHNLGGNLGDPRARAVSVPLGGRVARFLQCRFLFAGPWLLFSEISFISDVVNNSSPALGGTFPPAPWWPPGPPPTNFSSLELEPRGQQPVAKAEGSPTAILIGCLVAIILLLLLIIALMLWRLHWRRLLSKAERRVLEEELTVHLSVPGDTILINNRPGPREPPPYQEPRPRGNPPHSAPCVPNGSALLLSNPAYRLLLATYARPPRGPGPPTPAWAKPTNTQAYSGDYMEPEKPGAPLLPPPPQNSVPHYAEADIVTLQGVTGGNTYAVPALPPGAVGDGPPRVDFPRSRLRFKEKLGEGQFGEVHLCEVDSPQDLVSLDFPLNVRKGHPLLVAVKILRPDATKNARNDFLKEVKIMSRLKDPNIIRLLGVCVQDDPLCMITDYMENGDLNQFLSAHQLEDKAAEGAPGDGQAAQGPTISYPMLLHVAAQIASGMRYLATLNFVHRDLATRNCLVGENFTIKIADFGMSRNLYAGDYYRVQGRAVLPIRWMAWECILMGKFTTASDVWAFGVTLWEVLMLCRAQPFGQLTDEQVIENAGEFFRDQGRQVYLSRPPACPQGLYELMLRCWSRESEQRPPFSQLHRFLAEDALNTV
ERBB3, sequence (P21860 whole entry): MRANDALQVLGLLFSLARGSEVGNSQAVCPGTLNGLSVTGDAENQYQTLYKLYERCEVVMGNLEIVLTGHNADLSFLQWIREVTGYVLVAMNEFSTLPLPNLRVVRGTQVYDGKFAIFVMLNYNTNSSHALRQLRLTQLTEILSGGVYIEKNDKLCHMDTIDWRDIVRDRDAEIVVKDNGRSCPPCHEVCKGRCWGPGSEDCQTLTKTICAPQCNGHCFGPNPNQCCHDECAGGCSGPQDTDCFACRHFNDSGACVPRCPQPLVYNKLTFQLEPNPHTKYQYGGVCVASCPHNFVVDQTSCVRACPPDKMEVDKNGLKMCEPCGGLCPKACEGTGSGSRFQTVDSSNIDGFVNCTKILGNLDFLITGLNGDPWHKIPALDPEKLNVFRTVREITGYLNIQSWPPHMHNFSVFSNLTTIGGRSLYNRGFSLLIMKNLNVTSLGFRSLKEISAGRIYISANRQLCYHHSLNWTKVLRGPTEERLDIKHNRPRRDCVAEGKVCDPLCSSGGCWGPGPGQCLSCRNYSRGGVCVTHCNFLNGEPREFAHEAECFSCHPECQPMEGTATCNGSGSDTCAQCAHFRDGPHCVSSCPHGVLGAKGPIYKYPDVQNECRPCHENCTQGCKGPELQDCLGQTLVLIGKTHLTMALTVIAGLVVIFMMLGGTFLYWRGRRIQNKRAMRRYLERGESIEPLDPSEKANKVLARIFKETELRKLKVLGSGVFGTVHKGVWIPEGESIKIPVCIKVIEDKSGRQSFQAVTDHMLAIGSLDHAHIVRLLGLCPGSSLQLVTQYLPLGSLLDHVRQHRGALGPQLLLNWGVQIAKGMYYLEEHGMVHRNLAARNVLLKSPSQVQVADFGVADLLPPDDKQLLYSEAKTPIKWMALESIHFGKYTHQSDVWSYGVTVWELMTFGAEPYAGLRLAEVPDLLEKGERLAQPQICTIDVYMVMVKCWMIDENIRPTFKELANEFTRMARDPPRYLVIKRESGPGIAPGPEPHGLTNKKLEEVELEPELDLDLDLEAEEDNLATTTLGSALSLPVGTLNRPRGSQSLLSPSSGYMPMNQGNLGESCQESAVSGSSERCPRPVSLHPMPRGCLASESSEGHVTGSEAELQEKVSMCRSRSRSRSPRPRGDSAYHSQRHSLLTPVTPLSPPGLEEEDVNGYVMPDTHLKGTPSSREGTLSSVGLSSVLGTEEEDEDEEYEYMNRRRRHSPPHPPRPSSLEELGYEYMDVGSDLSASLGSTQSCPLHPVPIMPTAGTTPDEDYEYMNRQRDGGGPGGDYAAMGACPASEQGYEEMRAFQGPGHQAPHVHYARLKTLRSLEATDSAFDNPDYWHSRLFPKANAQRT
CASK, sequence (O14936 whole entry): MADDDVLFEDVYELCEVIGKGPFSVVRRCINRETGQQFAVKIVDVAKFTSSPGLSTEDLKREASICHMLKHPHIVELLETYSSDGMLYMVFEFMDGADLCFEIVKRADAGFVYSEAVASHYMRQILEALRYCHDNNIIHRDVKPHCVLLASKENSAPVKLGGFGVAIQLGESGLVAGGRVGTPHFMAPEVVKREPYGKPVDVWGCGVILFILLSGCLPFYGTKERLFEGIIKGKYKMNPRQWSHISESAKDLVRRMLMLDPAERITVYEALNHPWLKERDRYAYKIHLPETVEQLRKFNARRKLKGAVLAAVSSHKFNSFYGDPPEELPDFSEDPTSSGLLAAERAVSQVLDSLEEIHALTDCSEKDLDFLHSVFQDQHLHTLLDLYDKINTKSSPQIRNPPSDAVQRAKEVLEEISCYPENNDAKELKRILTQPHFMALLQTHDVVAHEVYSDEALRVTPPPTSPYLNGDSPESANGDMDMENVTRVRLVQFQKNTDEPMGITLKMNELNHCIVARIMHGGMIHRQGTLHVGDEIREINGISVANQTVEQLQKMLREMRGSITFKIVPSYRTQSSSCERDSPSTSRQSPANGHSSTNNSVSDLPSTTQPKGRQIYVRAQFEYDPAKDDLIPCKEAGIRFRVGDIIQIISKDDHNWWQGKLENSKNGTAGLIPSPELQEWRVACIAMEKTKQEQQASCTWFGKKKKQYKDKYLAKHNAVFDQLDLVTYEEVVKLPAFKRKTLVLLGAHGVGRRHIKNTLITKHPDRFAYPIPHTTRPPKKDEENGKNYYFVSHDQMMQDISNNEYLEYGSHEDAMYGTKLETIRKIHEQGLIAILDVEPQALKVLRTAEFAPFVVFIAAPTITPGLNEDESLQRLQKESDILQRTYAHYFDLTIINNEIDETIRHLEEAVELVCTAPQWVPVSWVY
PAK2, sequence (Q13177 whole entry): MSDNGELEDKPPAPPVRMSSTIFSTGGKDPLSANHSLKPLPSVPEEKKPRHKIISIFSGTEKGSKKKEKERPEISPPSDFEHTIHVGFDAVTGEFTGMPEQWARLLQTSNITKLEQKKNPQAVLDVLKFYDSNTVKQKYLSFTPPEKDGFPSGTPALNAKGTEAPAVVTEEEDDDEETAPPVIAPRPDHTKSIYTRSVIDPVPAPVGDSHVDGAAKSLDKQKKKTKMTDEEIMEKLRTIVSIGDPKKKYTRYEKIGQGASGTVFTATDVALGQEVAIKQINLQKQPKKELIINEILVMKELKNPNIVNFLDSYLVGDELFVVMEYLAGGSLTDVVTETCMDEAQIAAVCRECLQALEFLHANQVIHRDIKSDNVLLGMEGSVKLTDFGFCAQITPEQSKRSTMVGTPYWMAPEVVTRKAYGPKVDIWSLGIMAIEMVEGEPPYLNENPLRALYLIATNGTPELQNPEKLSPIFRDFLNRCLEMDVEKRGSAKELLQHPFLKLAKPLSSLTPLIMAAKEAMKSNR
T5 sequence (Q9NSY1 whole entry): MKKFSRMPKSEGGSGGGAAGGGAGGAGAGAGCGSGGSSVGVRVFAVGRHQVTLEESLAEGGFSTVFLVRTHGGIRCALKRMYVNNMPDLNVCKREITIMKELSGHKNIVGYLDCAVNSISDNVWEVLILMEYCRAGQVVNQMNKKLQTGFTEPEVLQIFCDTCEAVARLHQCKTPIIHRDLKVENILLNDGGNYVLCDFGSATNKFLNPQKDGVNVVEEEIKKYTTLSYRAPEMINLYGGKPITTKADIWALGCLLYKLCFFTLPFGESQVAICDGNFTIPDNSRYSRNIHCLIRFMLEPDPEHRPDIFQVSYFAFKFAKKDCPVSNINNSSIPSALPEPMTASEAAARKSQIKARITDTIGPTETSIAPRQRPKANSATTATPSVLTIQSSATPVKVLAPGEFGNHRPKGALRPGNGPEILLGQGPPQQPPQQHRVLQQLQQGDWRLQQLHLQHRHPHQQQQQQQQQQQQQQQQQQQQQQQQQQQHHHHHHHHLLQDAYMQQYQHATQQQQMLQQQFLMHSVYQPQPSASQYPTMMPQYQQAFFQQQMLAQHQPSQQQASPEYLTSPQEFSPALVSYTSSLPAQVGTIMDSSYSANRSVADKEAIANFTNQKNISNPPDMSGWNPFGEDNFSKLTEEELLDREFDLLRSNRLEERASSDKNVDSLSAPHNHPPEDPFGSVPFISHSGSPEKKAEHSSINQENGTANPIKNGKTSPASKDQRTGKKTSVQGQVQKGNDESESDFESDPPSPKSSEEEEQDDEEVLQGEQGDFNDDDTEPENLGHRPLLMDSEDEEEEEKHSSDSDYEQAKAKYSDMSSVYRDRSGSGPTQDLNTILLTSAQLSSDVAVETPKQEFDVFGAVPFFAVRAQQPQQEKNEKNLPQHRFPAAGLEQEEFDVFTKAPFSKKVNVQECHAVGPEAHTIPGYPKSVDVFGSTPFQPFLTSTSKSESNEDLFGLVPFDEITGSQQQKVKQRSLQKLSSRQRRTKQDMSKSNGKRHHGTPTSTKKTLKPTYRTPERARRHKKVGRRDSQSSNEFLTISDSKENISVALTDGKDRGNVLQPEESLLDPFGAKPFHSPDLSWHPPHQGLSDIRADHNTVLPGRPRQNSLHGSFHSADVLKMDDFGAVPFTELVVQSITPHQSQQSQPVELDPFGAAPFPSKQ

c1ccc2c(c1)Sc1ccccc1N2CCN1CCOCC1 [J54]
remaining binding (ERK3): 73%
remaining binding (MINK): 100%
remaining binding (MST4): 100%
remaining binding (KIT(V559D)): 100%
remaining binding [1]: 100%
remaining binding (BRSK2): 100%
remaining binding (NEK9): 100%
remaining binding (DDR1): 100%
remaining binding (MAP4K5): 68%
remaining binding (BIKE): 52%
remaining binding (MKK7): 79%
remaining binding (CASK): 100%
remaining binding (ZAP70): 100%
remaining binding (ERBB3): 78%
remaining binding (PAK2): 76%
remaining binding (MET(M1250T)): 67%
remaining binding (SRPK1): 100%
remaining binding (MAPKAPK2): 100%
